Results published in PMC5786788, “Antimicrobial Octapeptin C4 Analogues Active against Cryptococcus Species” (Antimicrobial Agents and Chemotherapy, 2018).
Converted amounts (≈) assume the structure as drawn. Read-outs that look alike come from different tables or passages of the source.

Columns and labels:
[1] = test system: C. neoformans var. gattii; experiment: microbe, parasite or virus in culture
Procedure: (§1) The MICs of the yeast strains for PMB, PME, and octapeptin C4 and its derivatives were determined in accordance with CLSI M27-A2 guidelines using YNB (Becton Dickinson, USA) medium supplemented with 10 mM ammonium sulfate and 2% glucose, a final inoculum concentration of 1.5 × 10^3 to 2.0 × 10^3 cells/ml, and incubation at 35°C for 72 h ([39]). […] The MICs for PMB, PME, and octapeptin C4 for A. fumigatus were determined in accordance with the CLSI M38-A2 guidelines ([40]) using synthetic RPMI 1640 medium (with glutamine, without bicarbonate and with phenol red; Life Technologies, USA). The final inoculum concentration was 0.4 × 10^4 to 5 × 10^4 cells/ml, with incubation at 35°C for 48 h. […] All assays were completed in triplicate. Fluconazole was used as a positive control where the MIC was determined at both 50% growth (in accordance with CLSI M27-A2 guidelines) and when there was a “no visible growth” reading.

[2] = test system: C. neoformans var. neoformans; experiment: microbe, parasite or virus in culture; conditions: Cryptococcus neoformans
Procedure: as §1

SMILES: OC(Cn1cncn1)(Cn1cncn1)c1ccc(F)cc1F [Fluconazole, fluconazole]
- MIC ([1]; Cryptococcus neoformans, ATCC34882, strain ATCC 34882, no visible growth): 6.25 µg/mL (≈ 20.4 µM)
- MIC ([1]; Cryptococcus neoformans, read-out: MIC-2, strain 93/980 (CSF France), 50% fungal growth): 1.56 µg/mL (≈ 5.09 µM)
- MIC ([1]; Cryptococcus neoformans, read-out: MIC-2, strain B5742 (VGIV CSF India), 50% fungal growth): 3.13 µg/mL (≈ 10.2 µM)
- MIC ([1]; Cryptococcus neoformans, read-out: MIC-2, strain R266 (Vancouver Island), 50% fungal growth): 6.25 µg/mL (≈ 20.4 µM)
- MIC ([1]; Cryptococcus neoformans, read-out: MIC-2, strain R267 (Vancouver Island), 50% fungal growth): 25 µg/mL (≈ 81.6 µM)
- MIC ([1]; Cryptococcus neoformans, read-out: MIC-2, strain R268 (Vancouver Island), 50% fungal growth): 0.78 µg/mL (≈ 2.55 µM)
- MIC ([1]; Cryptococcus neoformans, read-out: MIC-2, strain R269 (Vancouver Island), 50% fungal growth): 3.13 µg/mL (≈ 10.2 µM)
- MIC ([1]; Cryptococcus neoformans, read-out: MIC-2, strain R270 (Vancouver Island), 50% fungal growth): 3.13 µg/mL (≈ 10.2 µM)
- MIC ([1]; Cryptococcus neoformans, strain R266 (Vancouver Island), no visible growth): 12.5 µg/mL (≈ 40.8 µM)
- MIC ([1]; Cryptococcus neoformans, strain R267 (Vancouver Island), no visible growth): < 25 µg/mL
- MIC ([1]; Cryptococcus neoformans, strain R268 (Vancouver Island), no visible growth): 1.56 µg/mL (≈ 5.09 µM)
- MIC ([1]; Cryptococcus neoformans, strain R269 (Vancouver Island), no visible growth): 12.5 µg/mL (≈ 40.8 µM)
- MIC ([1]; Cryptococcus neoformans, strain R270 (Vancouver Island), no visible growth): 6.25 µg/mL (≈ 20.4 µM)
- MIC ([1]; read-out: MIC-2, strain 96/1120-1 (Brain HIV2 France), 50% fungal growth): 3.13 µg/mL (≈ 10.2 µM)
- MIC ([1]; read-out: MIC-2, strain 96/1120-2 (CSF HIV2 France), 50% fungal growth): 6.25 µg/mL (≈ 20.4 µM)
- MIC ([1]; read-out: MIC-2, strain B5748 (VGIV HIV India), 50% fungal growth): 3.13 µg/mL (≈ 10.2 µM)
- MIC ([1]; strain 96/1120-1 (Brain HIV2 France), no visible growth): 25 µg/mL (≈ 81.6 µM)
- MIC ([1]; strain 96/1120-2 (CSF HIV2 France), no visible growth): 25 µg/mL (≈ 81.6 µM)
- MIC ([1]; strain B5748 (VGIV HIV India), no visible growth): 12.5 µg/mL (≈ 40.8 µM)
- MIC ([2]; read-out: MIC-2, strain WM 01.127 (USA), 50% fungal growth): 6.25 µg/mL (≈ 20.4 µM)
- MIC ([2]; read-out: MIC-2, strain WM 02.141 (Russia), 50% fungal growth): 3.13 µg/mL (≈ 10.2 µM)
- MIC ([2]; read-out: MIC-2, strain WM 02.142 (Russia), 50% fungal growth): 6.25 µg/mL (≈ 20.4 µM)
- MIC ([2]; read-out: MIC-2, strain WM 02.143 (Russia), 50% fungal growth): 6.25 µg/mL (≈ 20.4 µM)
- MIC ([2]; read-out: MIC-2, strain WM 02.37 (Canada), 50% fungal growth): 6.25 µg/mL (≈ 20.4 µM)
- MIC ([2]; read-out: MIC-2, strain WM 02.52 (Canada), 50% fungal growth): 3.13 µg/mL (≈ 10.2 µM)
- MIC ([2]; read-out: MIC-2, strain WM 04.168 (Chile), 50% fungal growth): 6.25 µg/mL (≈ 20.4 µM)
- MIC ([2]; read-out: MIC-2, strain WM 04.171 (Thailand, environmental), 50% fungal growth): 6.25 µg/mL (≈ 20.4 µM)
- MIC ([2]; read-out: MIC-2, strain WM 05.467 (Brazil, environmental), 50% fungal growth): 6.25 µg/mL (≈ 20.4 µM)
- MIC ([2]; read-out: MIC-2, strain WM 05.515 (Peru), 50% fungal growth): 1.56 µg/mL (≈ 5.09 µM)
- MIC ([2]; read-out: MIC-2, strain WM 09.109 (Italy, environmental), 50% fungal growth): 3.13 µg/mL (≈ 10.2 µM)
- MIC ([2]; read-out: MIC-2, strain WM 09.112 (USA), 50% fungal growth): 3.13 µg/mL (≈ 10.2 µM)
- MIC ([2]; read-out: MIC-2, strain WM 10.119 (Australia), 50% fungal growth): 3.13 µg/mL (≈ 10.2 µM)
- MIC ([2]; read-out: MIC-2, strain WM 629 (Australia), 50% fungal growth): 3.13 µg/mL (≈ 10.2 µM)
- MIC ([2]; read-out: MIC-2, strain WM 1706 (Argentina), 50% fungal growth): 6.25 µg/mL (≈ 20.4 µM)
- MIC ([2]; read-out: MIC-2, strain WM 1740 (Chile), 50% fungal growth): 3.13 µg/mL (≈ 10.2 µM)
- MIC ([2]; read-out: MIC-2, strain WM 2207 (USA, environmental), 50% fungal growth): 12.5 µg/mL (≈ 40.8 µM)
- MIC ([2]; read-out: MIC-2, strain WM 2242 (USA), 50% fungal growth): 1.56 µg/mL (≈ 5.09 µM)
- MIC ([2]; read-out: MIC-2, strain WM 2530 (USA), 50% fungal growth): 3.13 µg/mL (≈ 10.2 µM)
- MIC ([2]; strain WM 01.127 (USA), no visible growth): 12.5 µg/mL (≈ 40.8 µM)
- MIC ([2]; strain WM 02.141 (Russia), no visible growth): 6.25 µg/mL (≈ 20.4 µM)
- MIC ([2]; strain WM 02.142 (Russia), no visible growth): 12.5 µg/mL (≈ 40.8 µM)
- MIC ([2]; strain WM 02.143 (Russia), no visible growth): 12.5 µg/mL (≈ 40.8 µM)
- MIC ([2]; strain WM 02.37 (Canada), no visible growth): 25 µg/mL (≈ 81.6 µM)
- MIC ([2]; strain WM 02.52 (Canada), no visible growth): 6.25 µg/mL (≈ 20.4 µM)
- MIC ([2]; strain WM 04.168 (Chile), no visible growth): 12.5 µg/mL (≈ 40.8 µM)
- MIC ([2]; strain WM 04.171 (Thailand, environmental), no visible growth): 6.25 µg/mL (≈ 20.4 µM)
- MIC ([2]; strain WM 05.467 (Brazil, environmental), no visible growth): 12.5 µg/mL (≈ 40.8 µM)
- MIC ([2]; strain WM 05.515 (Peru), no visible growth): 6.25 µg/mL (≈ 20.4 µM)
- MIC ([2]; strain WM 09.109 (Italy, environmental), no visible growth): 6.25 µg/mL (≈ 20.4 µM)
- MIC ([2]; strain WM 09.112 (USA), no visible growth): 12.5 µg/mL (≈ 40.8 µM)
- MIC ([2]; strain WM 10.119 (Australia), no visible growth): 6.25 µg/mL (≈ 20.4 µM)
- MIC ([2]; strain WM 629 (Australia), no visible growth): 6.25 µg/mL (≈ 20.4 µM)
- MIC ([2]; strain WM 1706 (Argentina), no visible growth): 12.5 µg/mL (≈ 40.8 µM)
- MIC ([2]; strain WM 1740 (Chile), no visible growth): 6.25 µg/mL (≈ 20.4 µM)
- MIC ([2]; strain WM 2207 (USA, environmental), no visible growth): 25 µg/mL (≈ 81.6 µM)
- MIC ([2]; strain WM 2242 (USA), no visible growth): 3.13 µg/mL (≈ 10.2 µM)
- MIC ([2]; strain WM 2530 (USA), no visible growth): 6.25 µg/mL (≈ 20.4 µM)
